Literature values as cited in US6303615A, “2,3 disubstituded-4(3H)-quinazolinones” (Pfizer Inc, priority 1999, dated 2001).

Legend:
[1] = reported in literature (LaPeillet et al.)
[2] = reported in literature (Sheardown et al.; Buchan et al.; LePeillet et al.)

Compound	neuroprotection in rat global ischemia models [1]	preventing global and focal ischemic damage [2]
CC1=NN=C(c2ccc(N)cc2)c2cc3c(cc2C1)OCO3 [GKYI 52466]	effective neuroprotective agent	
NS(=O)(=O)c1cccc2c1c([N+](=O)[O-])cc1[nH]c(=O)c(=O)[nH]c12 [NBQX, 2,3-dihydroxy-6-nitro-7-sulfamoylbenzo[f-]quinoxaline]		effective
